Assay results taken from US20130041005A1, “PHARMACEUTICAL COMPOSITIONS COMPRISING NEUROPILIN INHIBITORS, AND THEIR USE FOR THE PREVENTION AND/OR TREATMENT OF ANGIOGENIC DISORDERS AND CANCERS” (TRAGEX PHARMA, priority 2011, published 2013).
Entries after “also recorded” stand apart in the source; their conditions may differ.

What was measured:
[1] = tested on: breast cancer cells (MDA-MB-231); assay: Apoptosis assay (Annexin V-FITC/PI), MDA-MB-231; assay type: cell-based, Human; details: IC50 concentration, 72 h (FIG. 5B)
Method: The level of apoptosis in endothelial (HUVEC) and breast cancer cells (MDA-MB-231) was detected by Annexin V-FITC Apoptosis Detection Kit (ref 556547, BD Biosciences, France) according to the manufacturer's instructions. Briefly, HUVEC and MDA-MB-231 cells were treated separately with DMSO (control) and the compounds of the invention at the concentration corresponding to the IC50, obtained by the proliferation assay, for 72 h. After treatment, all cell including both detached and attached cells were collected, centrifugated at 14000 rpm for 5 min and the apoptotic cells were detected by staining with Annexin V-FITC and (propidium iodide) PI. The cells were resuspended in 100 μl Annexin V binding buffer (10 mM Hepes/NaOH, pH 7.4, 140 mM NaCl, […]) containing 5 μl of Annexin V-FITC and 5 μl of PI (propidium iodide). Samples were gently mixed and incubated for 2 h on ice and in the dark. Viable and apoptotic cell were detected by flow citometry (FACS Calibur Becton Dickinson, France). Apoptotic cells include both the early apoptotic portion (Annexin V-positive) and the late apoptotic portion (Annexin V- and PI-positive). Staurosporine is used as a positive control of apoptosis induction.

HCT-29 = assay: WST-1 proliferation assay, HCT-29; assay type: cell-based; details: Homo sapiens; Colon HCT-29, 72 h; read-out: Anti-proliferative activity IC50 (μM) ± SD
From the text: Several cancer cell lines were used: breast cancer cells (MDA-MB-231 (ATTCC® Number HTB-26™), MDA-MB-436 (ATTCC® Number HTB-130™), MDA-MB-438, BT-474 (ATTCC® Number HTB-20™)); cervical cancer cells (HeLa (ATTCC® Number CCL-2™)); colon cancer cells (HCT-116 (ATTCC® Number CCL-247™) and HT-29 (ATTCC® Number HTB-38™)); osteosarcoma cells (U2OS (ATTCC® Number HTB-96™)); pancreas cancer cells (MIA PaCa-2 (ATTCC® Number CRL-1420™) and Panc-10.5 (ATTCC® Number CRL-2547™)); prostate cancer cells (PC-3 (ATTCC® Number CRL-1435™) and LNCaP (ATTCC® Number CRL-1740™)); brain cancer cells (U87 glioblastoma (ATTCC® Number HTB-14™) and SH-SYSY neuroblastoma (ATTCC® Number CRL-2266™)). […]
After observation of cells under the microscope, old media were removed and the adherent cells washed gently twice with PBS (Phosphate Buffer Saline, —Ca^2+, —Mg^2+, Lonza cat no: 17-512F/12). […] 50 μl of this solution were transferred in 20 μl of isotonic solution and the cells were counted by count cellular (Beckman Coulter). […]
The cell proliferation WST-1 assay is a colorimetric assay for the quantification of cell proliferation and viability, based on the enzymatic cleavage of the tetrazolium salt WST-1 added to the culture medium, to a water soluble colored formazan dye, detected by absorbance at 450 nm, by mitochondrial succinate-tetrazolium reductase in viable cells. […]

HUVEC cells = assay: WST-1 proliferation assay, HUVEC; assay type: cell-based; details: for cytotoxicity for endothelial cell lines (HUVEC cells) in culture: FIG. 1 cell survival; for IC50: Homo sapiens, HUVEC, 72 h, read-out: Anti-proliferative activity on HUVEC cells (IC50)
Method: Cells were grown as subconfluent monolayer and cultured in 75 cm^2 flasks at 37° C., 5% CO2 in a humidified atmosphere, and medium was changed every two days. Only cells from passages 2-6 were used for the experiments.
All cells were detached with 3 ml of trypsin/EDTA (chelator of calcium and magnesium ions) (Lonza), incubated for 5 min at 37° C., and examined using a microscope to ensure that the cells were detached and floating. […] The supernatant was removed and the cell pellet resuspended in […] of culture medium. 50 μl of this solution were transferred in 20 μl of isotonic solution and the cells were counted by count cellular (Beckman Coulter).
The cell proliferation WST-1 assay is a colorimetric assay for the quantification of cell proliferation and viability, based on the enzymatic cleavage of the tetrazolium salt WST-1 added to the culture medium, to a water soluble colored formazan dye, detected by absorbance at 450 nm, by mitochondrial succinate-tetrazolium reductase in viable cells. An augmentation in enzyme activity will then lead to an increase in the amount of formazan dye formed, which directly correlates to the number of metabolically active cells in the culture.
After an incubation period of 72 h, at day 4, were prepared the […] medium with reagent WST-1 […] ([…]). The medium was removed from the 96 microplate and 200 μl of solution WST-1/medium were added for each well. The cells were incubated at 37° C. in a humidified atmosphere of 5% CO2 for 1 h 30 and the absorbance at 450-655 nm was measured by Microplate Manager 5.2 (Bio-Rad).

Row | SMILES | induction of apoptosis in cancer cells [1] | IC50 (HCT-29) [µM] | cytotoxicity for endothelial cell lines (HUVEC cells) in culture (HUVEC cells) | IC50 (HUVEC cells) [nM]
1 | Cc1ccc(-c2nc3ccccc3[nH]2)cc1NC(=S)NC(=O)c1ccc2c(c1)OCCO2 [Compound 1, N-[5-(1H-benzimidazol-2-yl)-2-methylphenyl]-N′-(2,3-dihydro-1,4-benzodioxin-6-ylcarbonyl)thiourea] | induced the apoptosis; also recorded: induction of apoptosis | 0.5 ± 0.05 | cytotoxic | 200 ± 10
2 | O=C(NC(=S)Nc1cccc(-c2nc3ccccc3[nH]2)c1)c1ccc2c(c1)OCCO2 [Compound 2, N-[3-(1H-benzimidazol-2-yl)phenyl]-N′-(2,3-dihydro-1,4-benzodioxin-6-ylcarbonyl)thiourea] | induced the apoptosis; also recorded: induction of apoptosis | 0.1 ± 0.01 | cytotoxic | 50 ± 10
